Data reported in DBAASP.
In brackets after ≈: the same amount, converted by molar mass.

Key:
Assay in all cases: ≥ marks a high value that may be exact or a test limit, other limits are often not marked, values filed in µg/mL are converted to µM
[1] = test system: Escherichia coli ATCC 25922
[2] = test system: Staphylococcus aureus ATCC 25923
[3] = test system: Pseudomonas aeruginosa ATCC 27853

MIC [1] [µM]	MIC [2] [µM]	MIC [3] [µM]	Structure (SMILES)
31.6 (≈ 32 µg/mL)	–	–	CC(C)C[C@H](NC(=O)[C@H](CC(N)=O)NC(=O)[C@H](CCCCN)NC(=O)[C@H](CCCN=C(N)N)NC(=O)[C@@H]1CCCN1C(=O)[C@H](C)N)C(=O)N[C@@H](CCCCN)C(=O)N[C@@H](Cc1c[nH]c2ccccc12)C(=O)O [APRKNLKW]
62.4 (≈ 64 µg/mL)	–	–	CC(C)[C@H](NC(=O)[C@H](CC(N)=O)NC(=O)[C@H](CCCCN)NC(=O)[C@H](CCCN=C(N)N)NC(=O)[C@@H]1CCCN1C(=O)[C@H](C)N)C(=O)N[C@@H](CCCN=C(N)N)C(=O)N[C@@H](Cc1c[nH]c2ccccc12)C(=O)O [APRKNVRW]
4600 (≈ 5000 µg/mL)	2300 (≈ 2500 µg/mL)	–	CC(C)C[C@H](NC(=O)[C@H](C)NC(=O)[C@H](CCCCN)NC(=O)[C@H](C)NC(=O)[C@H](CC(C)C)NC(=O)[C@H](CC(=O)O)NC(=O)[C@@H](N)CCC(=O)O)C(=O)N[C@@H](C)C(=O)N[C@@H](CCCCN)C(=O)N[C@@H](CCCCN)C(=O)O [EDLAKALAKK]
30.8 (≈ 50 µg/mL)	30.8 (≈ 50 µg/mL)	–	CSCC[C@H](NC(=O)[C@H](CCCN=C(N)N)NC(=O)[C@H](Cc1c[nH]c2ccccc12)NC(=O)[C@H](CCC(N)=O)NC(=O)[C@H](Cc1c[nH]c2ccccc12)NC(=O)[C@H](CCCN=C(N)N)NC(=O)[C@H](CCCN=C(N)N)NC(=O)[C@H](CS)NC(=O)[C@H](CCCCN)NC(=O)[C@@H](N)Cc1ccccc1)C(=O)N[C@@H](CCCCN)C(=O)O [FKCRRWQWRMK]
1 (≈ 4.93 µg/mL)	–	–	CC[C@H](C)[C@H](NC(=O)CNC(=O)[C@H](CC(N)=O)NC(=O)[C@@H](NC(=O)[C@@H](NC(=O)CNC(=O)[C@@H](NC(=O)[C@H](CCCCN)NC(=O)[C@@H](NC(=O)CNC(=O)[C@H](CCCCN)NC(=O)CNC(=O)[C@@H](NC(=O)[C@@H](NC(=O)[C@H](CCCCN)NC(=O)[C@@H]1CCCN1C(=O)[C@H](Cc1ccccc1)NC(=O)[C@@H](NC(=O)CN)[C@@H](C)CC)[C@@H](C)CC)[C@@H](C)CC)[C@@H](C)CC)[C@@H](C)O)[C@@H](C)CC)C(C)C)C(=O)N[C@@H](CCCCN)C(=O)N[C@@H](CO)C(=O)N[C@@H](CC(C)C)C(=O)N[C@H](C(=O)N[C@@H](CCCCN)C(=O)NCC(=O)N[C@H](C(=O)NCC(=O)N[C@@H](CCSC)C(=O)N[C@@H](CCCCN)C(=O)N[C@H](C(=O)N[C@@H](Cc1ccccc1)C(=O)N[C@@H](CCCCN)C(=O)N[C@@H](C)C(=O)NCC(=O)N[C@@H](CC(C)C)C(=O)N[C@@H](CC(N)=O)C(=O)N[C@@H](CC(N)=O)C(=O)N[C@H](C(=O)NCC(=O)N[C@@H](CC(N)=O)C(=O)N[C@H](C(=O)NCC(=O)N[C@H]1CSSC[C@@H](C(=O)O)NC(=O)[C@H](CCC(=O)O)NC(=O)[C@H](CC(=O)O)NC(=O)[C@H](CCC(=O)O)NC(=O)[C@H](CC(N)=O)NC1=O)[C@@H](C)O)[C@@H](C)CC)C(C)C)C(C)C)C(C)C [GIFPKIIGKGIKTGIVNGIKSLVKGVGMKVFKAGLNNIGNTGCNEDEC]
12.5 (≈ 22.4 µg/mL)	–	–	CC[C@H](C)[C@H](NC(=O)[C@H](CCCCN)NC(=O)[C@H](CC(C)C)NC(=O)[C@H](CC(C)C)NC(=O)[C@@H]1CCCN1C(=O)CNC(=O)[C@H](CC(C)C)NC(=O)[C@H](CCCCN)NC(=O)CN)C(=O)N[C@@H](C)C(=O)N[C@@H](C)C(=O)N[C@@H](CCCCN)C(=O)N[C@H](C(=O)NCC(=O)N[C@@H](CO)C(=O)N[C@@H](CC(N)=O)C(=O)N[C@@H](CC(C)C)C(=O)N[C@@H](CC(C)C)C(N)=O)C(C)C [GKLGPLLKIAAKVGSNLL]
> 41.3	> 41.3	–	CC[C@H](C)[C@H](NC(=O)[C@H](CCCN=C(N)N)NC(=O)[C@H](CCCCN)NC(=O)[C@H](CC(C)C)NC(=O)[C@H](CC(C)C)NC(=O)CN)C(=O)N[C@@H](CCCCN)C(=O)N[C@H](C(=O)N[C@@H](CC(C)C)C(N)=O)[C@@H](C)O [GLLKRIKTL]
19.6 (≈ 24 µg/mL)	> 19.6	–	CC[C@H](C)[C@H](NC(=O)[C@H](CCCN=C(N)N)NC(=O)[C@H](CCCCN)NC(=O)[C@H](CC(C)C)NC(=O)[C@H](CC(C)C)NC(=O)[C@@H](N)CCCCN)C(=O)N[C@@H](CCCCN)C(=O)N[C@H](C(=O)N[C@@H](CC(C)C)C(=O)N[C@@H](CC(C)C)C(N)=O)[C@@H](C)O [KLLKRIKTLL]
30 (≈ 50 µg/mL)	5 (≈ 8.34 µg/mL)	20 (≈ 33.3 µg/mL)	CC(C)C[C@H](NC(=O)[C@H](CCCN=C(N)N)NC(=O)[C@@H](N)CCCCN)C(=O)N[C@@H](CCCN=C(N)N)C(=O)N[C@@H](CCCN=C(N)N)C(=O)N[C@H](C(=O)N[C@@H](Cc1c[nH]c2ccccc12)C(=O)N[C@@H](CCCN=C(N)N)C(=O)N[C@@H](CCCN=C(N)N)C(=O)N[C@@H](Cc1c[nH]c2ccccc12)C(=O)N[C@@H](CCCN=C(N)N)C(N)=O)C(C)C [KRLRRVWRRWR]
5.76 (≈ 7.99 µg/mL)	–	–	CC[C@H](C)[C@H](NC(=O)[C@H](Cc1c[nH]c2ccccc12)NC(=O)[C@H](CCCCN)NC(=O)[C@H](Cc1c[nH]c2ccccc12)NC(=O)[C@H](Cc1c[nH]c2ccccc12)NC(=O)[C@H](CCCCN)NC(=O)[C@H](CCCCN)NC(=O)[C@H](Cc1c[nH]c2ccccc12)NC(=O)[C@@H](N)CCCCN)C(N)=O [KWKKWWKWI]
54.7 (≈ 59.9 µg/mL)	> 54.7	–	CC[C@H](C)[C@H](NC(=O)[C@H](CCCN=C(N)N)NC(=O)[C@H](CCCCN)NC(=O)[C@H](CC(C)C)NC(=O)[C@@H](N)CC(C)C)C(=O)N[C@@H](CCCCN)C(=O)N[C@H](C(=O)N[C@@H](CC(C)C)C(=O)N[C@@H](CC(C)C)C(N)=O)[C@@H](C)O [LLKRIKTLL]
–	–	64 (≈ 69.3 µg/mL)	CC(C)C[C@H](NC(=O)[C@@H](NC(=O)[C@H](CCCCN)NC(=O)[C@H](CCCCN)NC(=O)[C@@H](NC(=O)[C@H](CCCN=C(N)N)NC(=O)[C@H](CCCCN)NC(=O)[C@@H](NC(=O)[C@@H](N)CC(C)C)C(C)C)C(C)C)C(C)C)C(=O)O [LVKRVKKVL]
–	6 (≈ 12.6 µg/mL)	–	CC(C)C[C@H](NC(=O)[C@H](C)NC(=O)[C@@H](N)CO)C(=O)N[C@H](C(=O)NCC(=O)N[C@H]1CSSC[C@@H](C(=O)N[C@@H](Cc2ccccc2)C(=O)NCC(=O)N[C@@H](CCCN=C(N)N)C(=O)O)NC(=O)[C@@H]2CCCN2C(=O)[C@H](CCCCN)NC(=O)[C@@H]2CCCN2C(=O)[C@@H]2CCCN2C(=O)[C@H](Cc2ccc(O)cc2)NC(=O)[C@H](CO)NC(=O)[C@H](CCCCN)NC(=O)[C@H]([C@@H](C)O)NC(=O)[C@H](Cc2c[nH]c3ccccc23)NC1=O)C(C)C [SALVGCWTKSYPPKPCFGR]
> 100	> 100	> 100	CC[C@H](C)[C@H](NC(=O)CNC(=O)[C@@H](N)CO)C(=O)N[C@@H](CCC(N)=O)C(=O)N1CCC[C@H]1C(=O)N[C@@H](CCC(=O)O)C(=O)N[C@@H](CCC(N)=O)C(=O)N[C@@H](Cc1cnc[nH]1)C(=O)N[C@@H](CO)C(=O)N[C@@H](CO)C(N)=O [SGIQPEQHSS]
–	–	32 (≈ 36.9 µg/mL)	CSCC[C@H](NC(=O)[C@H](Cc1cnc[nH]1)NC(=O)[C@H](C)NC(=O)[C@H](CCSC)NC(=O)[C@@H](NC(=O)[C@H](CCCCN)NC(=O)[C@@H]1CCCN1C(=O)[C@H](CC(C)C)NC(=O)[C@@H](N)C(C)C)C(C)C)C(=O)N[C@@H](CCCCN)C(=O)O [VLPKVMAHMK]
233 (≈ 512 µg/mL)	–	–	CC(C)C[C@H](NC(=O)[C@@H](N)C(C)C)C(=O)N[C@H](C(=O)N1CCC[C@H]1C(=O)N[C@@H](CCC(N)=O)C(=O)NCC(=O)N[C@@H](Cc1ccccc1)C(=O)N[C@@H](C)C(=O)N[C@H](C(=O)N[C@H](C(=O)N[C@@H](CCCCN)C(=O)N[C@@H](CCCCN)C(=O)N[C@@H](C)C(=O)N[C@@H](CC(N)=O)C(=O)N[C@@H](Cc1ccccc1)C(=O)N[C@H](C(=O)N[C@@H](C)C(=O)N[C@@H](Cc1ccccc1)C(=O)N[C@@H](Cc1ccc(O)cc1)C(=O)N[C@H](C(=O)O)[C@@H](C)O)C(C)C)C(C)C)C(C)C)C(C)C [VLVPQGFAVVKKANFVAFYT]
16 (≈ 27.9 µg/mL)	32 (≈ 55.7 µg/mL)	100 (≈ 174 µg/mL)	CC(C)[C@H](NC(=O)[C@H](Cc1ccc(O)cc1)NC(=O)[C@H](CO)NC(=O)[C@H](CCCCN)NC(=O)[C@@H](N)Cc1c[nH]c2ccccc12)C(=O)N[C@@H](CCCN=C(N)N)C(=O)N[C@@H](CCCN=C(N)N)C(=O)N[C@@H](Cc1c[nH]c2ccccc12)C(=O)N[C@@H](CCCN=C(N)N)C(=O)N[C@@H](CO)C(=O)N[C@@H](CCCN=C(N)N)C(=O)N[C@@H](Cc1ccc(O)cc1)C(N)=O [WKSYVRRWRSRY]
16 (≈ 25.3 µg/mL)	32 (≈ 50.5 µg/mL)	> 100	CC(C)[C@H](NC(=O)[C@H](Cc1ccc(O)cc1)NC(=O)[C@H](CO)NC(=O)[C@H](CCCCN)NC(=O)[C@@H](N)Cc1c[nH]c2ccccc12)C(=O)N[C@@H](CCCN=C(N)N)C(=O)N[C@@H](CCCN=C(N)N)C(=O)N[C@@H](Cc1c[nH]c2ccccc12)C(=O)N[C@@H](CCCN=C(N)N)C(=O)N[C@@H](CO)C(=O)N[C@@H](CCCN=C(N)N)C(N)=O [WKSYVRRWRSR]
64 (≈ 91.1 µg/mL)	> 100	> 100	CC(C)[C@H](NC(=O)[C@H](Cc1ccc(O)cc1)NC(=O)[C@H](CO)NC(=O)[C@H](CCCCN)NC(=O)[C@@H](N)Cc1c[nH]c2ccccc12)C(=O)N[C@@H](CCCN=C(N)N)C(=O)N[C@@H](CCCN=C(N)N)C(=O)N[C@@H](Cc1c[nH]c2ccccc12)C(=O)N[C@@H](CCCN=C(N)N)C(=O)N[C@@H](CO)C(N)=O [WKSYVRRWRS]
4.08 (≈ 7.5 µg/mL)	2.72 (≈ 5 µg/mL)	10.9 (≈ 20 µg/mL)	CSCC[C@H](NC(=O)[C@H](CCCN=C(N)N)NC(=O)[C@@H](N)Cc1ccc(O)cc1)C(=O)N[C@@H](Cc1c[nH]c2ccccc12)C(=O)N[C@@H](CCCN=C(N)N)C(=O)N[C@@H](Cc1c[nH]c2ccccc12)C(=O)N[C@@H](CCCN=C(N)N)C(=O)N[C@@H](Cc1c[nH]c2ccccc12)C(=O)N[C@@H](CCCN=C(N)N)C(=O)N[C@@H](Cc1c[nH]c2ccccc12)C(=O)N[C@@H](CCCN=C(N)N)C(N)=O [YRMWRWRWRWR]
